Experimental findings from patent US11555012B2 (Nimbus Artemis, Inc., priority 2018, dated 2023) are described below.

For assay [1], the target named is T1, ACL (Homo sapiens (Human), UniProt P53396). Put plainly: ADP-Glo Assay. In general terms: In ADP-Glo the light output rises with the ADP produced.
Target sequence in this assay (P53396 other isoform, or with tags, fused parts or gaps isoform P53396-2): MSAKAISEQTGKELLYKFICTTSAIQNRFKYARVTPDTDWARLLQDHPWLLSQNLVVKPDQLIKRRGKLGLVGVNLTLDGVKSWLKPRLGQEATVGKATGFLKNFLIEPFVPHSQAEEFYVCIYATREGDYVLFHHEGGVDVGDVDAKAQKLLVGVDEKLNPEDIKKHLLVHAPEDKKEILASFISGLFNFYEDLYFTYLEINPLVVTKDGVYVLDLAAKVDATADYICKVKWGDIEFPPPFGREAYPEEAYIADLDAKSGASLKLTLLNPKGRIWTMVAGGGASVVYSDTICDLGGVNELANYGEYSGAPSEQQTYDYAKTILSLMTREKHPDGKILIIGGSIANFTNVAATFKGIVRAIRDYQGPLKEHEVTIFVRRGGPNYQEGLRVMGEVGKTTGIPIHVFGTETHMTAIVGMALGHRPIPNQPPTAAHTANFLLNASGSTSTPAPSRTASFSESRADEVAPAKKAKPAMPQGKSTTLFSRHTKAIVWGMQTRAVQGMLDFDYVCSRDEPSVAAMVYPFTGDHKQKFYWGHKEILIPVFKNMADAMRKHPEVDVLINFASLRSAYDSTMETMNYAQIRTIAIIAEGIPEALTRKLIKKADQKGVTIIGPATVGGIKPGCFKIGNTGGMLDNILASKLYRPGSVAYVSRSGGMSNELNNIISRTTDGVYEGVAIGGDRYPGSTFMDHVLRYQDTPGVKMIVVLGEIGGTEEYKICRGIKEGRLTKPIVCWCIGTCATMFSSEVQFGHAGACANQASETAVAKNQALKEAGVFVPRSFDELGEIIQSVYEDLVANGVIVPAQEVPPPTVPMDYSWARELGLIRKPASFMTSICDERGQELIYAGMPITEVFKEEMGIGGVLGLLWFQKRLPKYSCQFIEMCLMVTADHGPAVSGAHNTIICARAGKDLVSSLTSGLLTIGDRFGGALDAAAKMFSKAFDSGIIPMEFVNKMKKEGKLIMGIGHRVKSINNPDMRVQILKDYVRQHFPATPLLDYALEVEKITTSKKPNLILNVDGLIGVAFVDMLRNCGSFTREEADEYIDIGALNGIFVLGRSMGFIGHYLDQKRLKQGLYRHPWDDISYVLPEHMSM
Procedure: Compounds of the present invention were evaluated in an ADP-GLO assay as follows:
b) Add 0.1 μL diluted cpd solution to assay plate, each dose with 2 replicates c) Centrifuge 1000 RPM for 1 min d) Add 5 μL ACL working solution to 384-well assay plate, centrifuge 1000 RPM for 1 min e) Incubate at 25° C. for 15 min f) Add 5 μL substrate working solution to initiate reaction
h) Reference final conc: 30 uM starting Conc, 3× dilution, 11+0 points. Test cpd conc: 30/100 uM starting Conc, 3× dilution, 11+0 points. i) Incubate at 25° C. for 60 min j) Add 10 μL ADP Glo reagent, centrifuge 1000 RPM for 1 min k) Incubate at 25° C. for 40 min l) Add 20 μL kinase detection reagent, centrifuge 1000 RPM for 1 min m) Incubate at 25° C. for 40 min n) Read on Envision for US LUM as RLU
The target in assay [2] is T1, ACL. Put plainly: ACLY-MDH Coupled Assay.
Target sequence in this assay (P53396 whole entry, species assumed): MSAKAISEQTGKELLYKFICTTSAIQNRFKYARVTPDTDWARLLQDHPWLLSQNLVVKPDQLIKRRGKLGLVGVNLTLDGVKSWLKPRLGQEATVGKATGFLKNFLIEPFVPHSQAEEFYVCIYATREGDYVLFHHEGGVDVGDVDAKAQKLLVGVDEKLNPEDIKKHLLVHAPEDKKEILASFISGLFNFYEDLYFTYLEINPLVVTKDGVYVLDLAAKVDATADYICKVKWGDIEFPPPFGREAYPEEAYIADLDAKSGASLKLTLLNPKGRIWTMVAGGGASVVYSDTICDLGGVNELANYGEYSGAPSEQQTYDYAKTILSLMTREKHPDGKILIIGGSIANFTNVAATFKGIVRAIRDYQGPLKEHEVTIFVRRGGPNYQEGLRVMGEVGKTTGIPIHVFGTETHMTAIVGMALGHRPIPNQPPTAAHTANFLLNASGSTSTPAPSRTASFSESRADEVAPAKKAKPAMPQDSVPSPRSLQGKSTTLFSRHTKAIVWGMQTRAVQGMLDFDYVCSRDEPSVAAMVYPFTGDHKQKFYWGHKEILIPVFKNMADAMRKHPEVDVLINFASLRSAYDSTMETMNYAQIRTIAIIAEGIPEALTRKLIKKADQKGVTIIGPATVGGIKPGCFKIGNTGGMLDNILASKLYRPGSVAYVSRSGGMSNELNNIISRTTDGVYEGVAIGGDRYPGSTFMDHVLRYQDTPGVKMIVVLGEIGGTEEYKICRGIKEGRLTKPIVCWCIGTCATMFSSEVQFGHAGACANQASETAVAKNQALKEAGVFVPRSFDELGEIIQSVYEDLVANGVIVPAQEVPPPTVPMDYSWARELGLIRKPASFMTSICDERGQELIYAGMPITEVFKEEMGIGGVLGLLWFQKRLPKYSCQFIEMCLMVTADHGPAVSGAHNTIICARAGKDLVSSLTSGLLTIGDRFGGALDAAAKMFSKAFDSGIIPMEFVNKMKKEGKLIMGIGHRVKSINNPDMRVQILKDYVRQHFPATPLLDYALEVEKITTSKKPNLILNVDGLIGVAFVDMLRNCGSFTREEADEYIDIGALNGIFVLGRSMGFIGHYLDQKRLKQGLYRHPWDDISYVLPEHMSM
Procedure: Compounds of the present invention were evaluated in an ACLY Coupled Assay.
The assay protocol for the Coupled Assay (below) was followed:
b) Add 1 μL cpds to 96 assay plate, Test cpd conc: 100/30/10 μM top dose, 3 folds dilution, 10+0+control (control: buffer without ACL+DMSO) points, 1000 rpm for 1 min, incubation at 25° C. for 60 min
Setting [3] is: read-out: ACL-ADP-Glo (IC50), 3 nM ACL, 15 μM ATP, 3 μM CoA, 300 μM Citrate.
Setting [4] is: read-out: ACL-MDH Coupled Assay (IC50), 8 nM ACL, 60 μM CoA Na2, 85 μM Citrate, 250 μM ATP, 250 μM NADH.

A word on the IC50: it is the concentration that gives 50% inhibition. For `O=C(O)c1ccc(-c2ccccc2)cc1NS(=O)(=O)CC1Cc2ccccc2C1` [I-328], the IC50 against ACL [1] lay within 500 to 20000 nM; on ACL [2] it was 500 to 30000 nM.

Turning to `O=C(O)c1ccc(-c2ccccc2)cc1NS(=O)(=O)C1CCC1` [I-329], the results for the IC50 at ACL [1] and against ACL [2] were 500 to 20000 nM and 500 to 30000 nM, respectively.

On to `O=C(O)c1ccc(-c2ccccc2)cc1NS(=O)(=O)c1ccnn1CCc1ccccc1` [I-330], for which the IC50 at ACL [1] was 500 to 20000 nM; on ACL [2], 500 to 30000 nM.

Regarding `O=C(O)c1ccc(-c2ccccc2)cc1NS(=O)(=O)c1cc(Cl)sc1Cl` [I-331], the IC50 was 500 to 20000 nM against ACL [1] and 500 to 30000 nM at ACL [2].

As to `O=C(O)c1ccc(-c2ccccc2)cc1NS(=O)(=O)c1c(Cl)nc2sccn12` [I-332], the IC50 was 500 to 20000 nM against ACL [1] and 500 to 30000 nM against ACL [2].

With `Cc1sc2ccccc2c1S(=O)(=O)Nc1cc(-c2ccccc2)ccc1C(=O)O` [I-333], the IC50 against ACL [1] was 500 to 20000 nM; on ACL [2], 500 to 30000 nM.

Consider `O=C(O)c1ccc(-c2ccccc2)cc1NS(=O)(=O)c1c(Cl)nc2ccc(Br)cn12` [I-334], for which the values for the IC50 on ACL [1] and against ACL [2] were 500 to 20000 nM and 500 to 30000 nM, respectively.

On to `Cc1c(S(=O)(=O)Nc2cc(-c3ccccc3)ccc2C(=O)O)c2ccccc2n1C` [I-335], for which the IC50 against ACL [1] was in the range of 500 to 20000 nM; on ACL [2], 500 to 30000 nM.

As for `O=C(O)c1ccc(-c2ccccc2)cc1NS(=O)(=O)c1ccccc1-c1ccno1` [I-336], the IC50 at ACL [1] was in the range of 500 to 20000 nM; against ACL [2], 500 to 30000 nM.

Regarding `CC(=O)N1CCc2cc(Br)c(S(=O)(=O)Nc3cc(-c4ccccc4)ccc3C(=O)O)cc21` [I-338], the IC50 is 500 to 20000 nM against ACL [1] and 500 to 30000 nM against ACL [2].

Take `O=C(O)c1ccc(-c2ccccc2)cc1NS(=O)(=O)c1cccc2nonc12` [I-339]: the IC50 against ACL [1] was 500 to 20000 nM; at ACL [2] it was 500 to 30000 nM.

For the molecule `O=C(O)c1ccc(-c2ccccc2)cc1NS(=O)(=O)N1CCC2(CCCCC2)CC1` [I-340], the IC50 at ACL [1] fell in the range of 500 to 20000 nM; on ACL [2] it was 500 to 30000 nM.

As to `CN(C(=O)c1cc(Cl)cc(Cl)c1)c1cc(-c2ccccc2)ccc1C(=O)O` [I-347, 3-(3,5-dichloro-N-methylbenzamido)-[1,1′-biphenyl]-4-carboxylic Acid], the results for the IC50 on ACL [1] and at ACL [2] were 500 to 20000 nM and 500 to 30000 nM, respectively.

As for `O=C(O)c1ccc(-c2ccccc2)cc1NS(=O)(=O)c1cc(Cl)c[nH]c1=O` [I-350, 3-((5-chloro-2-oxo-1,2-dihydropyridine)-3-sulfonamido)-[1,1′-biphenyl]-4-carboxylic acid], the IC50 at ACL [1] lay in the range of 500 to 20000 nM; against ACL [2], 500 to 30000 nM.

As to `O=c1[nH]cc(C(F)(F)F)cc1S(=O)(=O)Nc1cc(-c2ccccc2)ccc1F` [I-355, N-[4-fluoro-[1,1-biphenyl]-3-yl]-2-oxo-5-(trifluoromethyl)-1,2-dihydropyridine-3-sulfonamide], the values for the IC50 at ACL [1] and at ACL [2] were 50 to 500 nM and 500 to 30000 nM, respectively.

For `O=C(O)c1ccc(-c2cccs2)cc1NS(=O)(=O)c1cc(Cl)cc(C(F)(F)F)c1` [I-366, 2-((3-chloro-5-(trifluoromethyl)phenyl)sulfonamido)-4-(thiophen-2-yl)benzoic Acid], the IC50 against ACL [1] and on ACL [2] was 50 to 500 nM throughout.

On to `O=c1[nH]cc(Cl)cc1S(=O)(=O)Nc1cc(-c2cc3ccccc3s2)ccc1F` [I-367, N-(5-(benzo[b]thiophen-2-yl)-2-fluorophenyl)-5-chloro-2-oxo-1,2-dihydropyridine-3-sulfonamide], for which the IC50 at ACL [1] lay in the range of 500 to 20000 nM; against ACL [2], 500 to 30000 nM.

With `O=S(=O)(Nc1ccoc1)c1cc(Cl)cc(Cl)c1` [I-368, 3,5-dichloro-N-(furan-3-yl)benzenesulfonamide], the IC50 against ACL [1] is 50 to 500 nM; against ACL [2] it was over 30000 nM.

On to `COc1ccc(-c2ccccc2)cc1NS(=O)(=O)c1ccc(-c2nn[nH]n2)cc1` [I-407, N-(2-methoxy-5-phenylphenyl)-4-(2H-1,2,3,4-tetrazol-5-yl)benzene-1-sulfonamide], for which the values for the IC50 at ACL [1] and on ACL [2] were over 20000 nM and over 30000 nM, respectively.

For the molecule `COc1ccc(-c2cc3ccccc3s2)cc1NS(=O)(=O)c1cc(C(=O)N2CCC2)cc(Cl)c1O` [I-503, 5-(azetidine-1-carbonyl)-N-(5-(benzo[b]thiophen-2-yl)-2-methoxyphenyl)-3-chloro-2-hydroxybenzenesulfonamide], the IC50 at ACL [1] (setting [3]) and on ACL [2] (setting [4]) was under 50 nM throughout.

As to `CCOC(=O)c1cc(Cl)c(O)c(S(=O)(=O)Nc2cc(-c3cc4ccccc4s3)c(F)cc2F)c1` [I-505, ethyl 3-(N-(5-(benzo[b]thiophen-2-yl)-2,4-difluorophenyl)sulfamoyl)-5-chloro-4-hydroxybenzoate], the IC50 on ACL [1] (setting [3]) and at ACL [2] (setting [4]) was under 50 nM each time.

As to `O=C(O)c1cc(Cl)c(O)c(S(=O)(=O)Nc2cc(-c3cc4ccccc4s3)c(F)cc2OC(F)(F)F)c1` [I-508, 3-(N-(5-(benzo[b]thiophen-2-yl)-4-fluoro-2-(trifluoromethoxy)phenyl)sulfamoyl)-5-chloro-4-hydroxybenzoic Acid], the results for the IC50 on ACL [1] and against ACL [2] were 50 to 500 nM and 500 to 30000 nM, respectively.

On to `O=S(=O)(Nc1cc(-c2ccccc2)ccc1OC(F)(F)F)c1cc(Cl)cc(Cl)c1O` [I-509, 3,5-dichloro-2-hydroxy-N-(4-(trifluoromethoxy)-[1,1′-biphenyl]-3-yl)benzenesulfonamide], for which the IC50 at ACL [1] and on ACL [2] was 50 to 500 nM in each case.

On to `COc1cc(F)c(-c2cc3ccccc3s2)cc1NS(=O)(=O)c1cc(C(=O)O)cc(Cl)c1O` [I-510], for which the IC50 was 500 to 20000 nM on ACL [1] and 500 to 30000 nM against ACL [2].

Regarding `O=C(c1cncs1)N(c1ccc(Cl)cc1)S(=O)(=O)c1cc(Br)cc(Cl)c1O` [I-511, N-((5-bromo-3-chloro-2-hydroxyphenyl)sulfonyl)-N-(4-chlorophenyl)thiazole-5-carboxamide], the IC50 fell in the range of 500 to 20000 nM on ACL [1] and 500 to 30000 nM against ACL [2].

For the molecule `CC#Cc1cc(Cl)ccc1NS(=O)(=O)c1cc(Br)cc(Cl)c1O` [I-512], the IC50 is 500 to 20000 nM at ACL [1] and 500 to 30000 nM on ACL [2].

Consider `CCN(c1ccc(Cl)cc1)S(=O)(=O)c1cc(Br)cc(Cl)c1O` [I-513, 5-bromo-3-chloro-N-(4-chlorophenyl)-N-ethyl-2-hydroxybenzene Sulfonamide], for which the IC50 at ACL [1] lay in the range of 500 to 20000 nM; on ACL [2] it was 500 to 30000 nM.

`O=S(=O)(c1cc(Br)cc(Cl)c1O)N(Cc1cncs1)c1ccc(Cl)cc1` [I-514, 5-bromo-3-chloro-N-(4-chlorophenyl)-2-hydroxy-N-(thiazol-5-ylmethyl)benzenesulfonamide]: the IC50 against ACL [1] is 500 to 20000 nM; against ACL [2], 500 to 30000 nM.

Take `O=C(Nc1cc(-c2cc3ccccc3s2)ccc1C(=O)O)c1cc(Cl)cc(Cl)c1` [I-515, 4-(benzo[b]thiophen-2-yl)-2-(3,5-dichlorobenzamido)benzoic Acid]: the figures for the IC50 at ACL [1] and against ACL [2] were 500 to 20000 nM and 500 to 30000 nM, respectively.
